This note sets out measurements from US7332506B2, “Substituted-3-indolyl-4-piperidino-alkyl heterocycles for the treatment of depression” (Wyeth, priority 2002, dated 2008).

Series [1] has as its target T1, human 5-HT1A receptors (Homo sapiens, UniProt P08908).
T1 construct: expressed in transfected cells; host or cells: CHO cells
T1 sequence (P08908 1-422): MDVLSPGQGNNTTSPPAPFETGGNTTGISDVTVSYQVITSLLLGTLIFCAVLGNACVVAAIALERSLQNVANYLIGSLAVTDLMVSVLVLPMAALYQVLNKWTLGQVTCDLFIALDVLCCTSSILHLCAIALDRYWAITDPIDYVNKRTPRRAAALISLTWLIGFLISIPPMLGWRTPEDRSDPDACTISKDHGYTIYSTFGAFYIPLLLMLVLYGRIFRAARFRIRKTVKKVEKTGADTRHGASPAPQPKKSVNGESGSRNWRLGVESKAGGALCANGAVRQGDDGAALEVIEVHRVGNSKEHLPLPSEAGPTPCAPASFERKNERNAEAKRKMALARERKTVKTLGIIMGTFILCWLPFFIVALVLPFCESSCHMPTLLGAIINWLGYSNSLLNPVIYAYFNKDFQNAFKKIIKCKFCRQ
The series is described as follows: [3H] 8-OH-DPAT displacement from the 5-HT1A serotonin receptor (CHO cells). The class given is binding. Particulars: @ 1000 nM; printed in the 5-HT1A Ki column. The text has this: High affinity for the serotonin 5-HT1A receptor was established by testing the claimed compound's ability to displace [^3H] 8-OH-DPAT (dipropylaminotetralin) from the 5-HT1A serotonin receptor following a modification of the procedure of Hall et al., J. Neurochem. 44, 1685 (1985) which utilizes CHO cells stably transfected with human 5-HT1A receptors.

Series [2] concerns the target T2, 5-HT transporter (Rattus norvegicus, UniProt P31652).
T2 construct: from tissue; host or cells: rat frontal cortex membranes (male Sprague-Dawley rats)
The series is described as follows: Rat Brain 3H-Paroxetine Binding Assay (RB 5HT Transporter). On the procedure: Rat Brain ^3H-Paroxetine Binding Assay (RB 5HT Transporter):
This assay was used to determine a compound's affinity of the 5-HT transporter.
A protocol similar to that used by Cheetham et. al. (Neuropharmacol. 1993, 32, 737) was used. Briefly, frontal cortical membranes prepared from male S.D. rats were incubated with ^3H-parxetine (0.1 nM) for 60 min. at 25° C. All tubes also contained either vehicle, test compound (one to eight concentrations), or a saturating concentration of fluoxetine (10 μM) to define […]. All reactions are terminated by the addition of ice cold Tris buffer followed by rapid filtration using a Tom Tech filtration device to separate bound from free ^3H-paroxetine. Bound radioactivity was quantitated using a Wallac 1205 Beta Plate® counter. Nonlinear regression analysis was used to determine IC50 values which were converted to Ki values using the method of Cheng and Prusoff (Biochem. Pharmacol. 1973, 22, 3099);

In series [3] the target is T3, Human 5-HT Transporter (Homo sapiens, UniProt P31645).
T3 construct: endogenous in cells; host or cells: Jar cells (human carcinoma), treated with staurosporine
The series is described as follows: Inhibition of 3H-5-HT Uptake by cells Possessing the Human 5-HT Transporter (HC 5HT Transporter). The class given is cell-based. Conditions: Jar cells, 3H-5-HT uptake; read-out: HC 5HT Transporter IC50. On the procedure:
[Staurosporine greatly increases the expression of the 5-HT-transporter.] On the day of assay, vehicle, excess of fluoxetine, or test compound is added to various wells on the plate. All wells then receive ^3H-5-HT and are incubated at 37° C. for 5 min. The wells are then washed with ice cold 50 mM Tris HCl (pH 7.4) buffer and aspirated to remove free ^3H-5-HT. 25 μl of 0.25 M NaOH is then added to each well to lyse the cells and 75 μl scintillation cocktail (Microscint™ 20) added prior to quantitation on a Packard TopCount machine. Tubes with vehicle represent total possible uptake, radioactivity counted in tubes with fluoxetine represent nonspecific binding/uptake and is subtracted from the total possible uptake to give total possible specific uptake. This nonspecific binding (usual low in number) is then subtracted from the counts obtained in wells with various test compounds (or different concentrations of test drug) to give specific uptake in the presence of drug. Specific uptake is then expressed as a % of control values and is analyzed using nonlinear regression analysis (Prizm) to determine IC50 values. If the compound is active at inhibiting 5-HT uptake, its counts will be close to that obtained with fluoxetine.

Read-outs that look alike come from different tables or passages of the source.

T2 sequence (P31652 whole entry): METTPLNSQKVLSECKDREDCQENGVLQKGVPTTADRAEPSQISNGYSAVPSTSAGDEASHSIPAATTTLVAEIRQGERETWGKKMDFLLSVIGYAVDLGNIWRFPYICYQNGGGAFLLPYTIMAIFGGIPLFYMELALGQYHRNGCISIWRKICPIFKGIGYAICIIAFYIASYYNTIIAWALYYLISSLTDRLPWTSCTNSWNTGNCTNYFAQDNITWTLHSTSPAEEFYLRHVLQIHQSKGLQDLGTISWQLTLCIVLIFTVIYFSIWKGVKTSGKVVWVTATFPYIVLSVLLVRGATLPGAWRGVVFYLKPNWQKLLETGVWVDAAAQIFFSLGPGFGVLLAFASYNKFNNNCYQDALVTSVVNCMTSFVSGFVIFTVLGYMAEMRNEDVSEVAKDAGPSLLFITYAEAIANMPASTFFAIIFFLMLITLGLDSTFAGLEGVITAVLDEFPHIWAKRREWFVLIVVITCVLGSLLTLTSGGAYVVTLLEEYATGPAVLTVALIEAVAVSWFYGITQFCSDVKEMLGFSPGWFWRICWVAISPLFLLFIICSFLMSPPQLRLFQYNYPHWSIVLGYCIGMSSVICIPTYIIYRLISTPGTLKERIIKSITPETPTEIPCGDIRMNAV
T3 sequence (P31645 whole entry): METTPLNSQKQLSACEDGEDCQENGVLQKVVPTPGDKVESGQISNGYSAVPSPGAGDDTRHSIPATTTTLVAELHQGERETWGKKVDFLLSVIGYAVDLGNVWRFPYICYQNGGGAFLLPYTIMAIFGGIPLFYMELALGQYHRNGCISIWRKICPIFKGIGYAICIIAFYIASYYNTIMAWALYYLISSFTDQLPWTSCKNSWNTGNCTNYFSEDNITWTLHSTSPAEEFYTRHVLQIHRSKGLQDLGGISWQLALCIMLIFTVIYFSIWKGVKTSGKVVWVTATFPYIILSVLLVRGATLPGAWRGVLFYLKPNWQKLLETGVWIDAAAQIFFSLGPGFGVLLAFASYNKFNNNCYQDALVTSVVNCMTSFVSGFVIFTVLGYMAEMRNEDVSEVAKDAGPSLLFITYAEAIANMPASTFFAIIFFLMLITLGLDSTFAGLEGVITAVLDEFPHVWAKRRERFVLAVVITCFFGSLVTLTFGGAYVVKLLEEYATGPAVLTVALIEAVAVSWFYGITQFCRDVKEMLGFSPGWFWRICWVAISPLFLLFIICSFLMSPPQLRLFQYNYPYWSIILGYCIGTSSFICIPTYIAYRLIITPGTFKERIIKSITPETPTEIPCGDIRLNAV

A word on the inhibition: it is how much of the control response was suppressed. Read a high inhibition as strong suppression. The Ki is a measure of affinity in units of concentration, obtained from inhibition or displacement. In general, IC50 refers to the concentration at which inhibition is half-maximal. The term melting point denotes the temperature of the solid-liquid transition. `Cn1cc(C2CCN(CCn3cnc4ccccc4c3=O)CC2)c2ccccc21` [Example 14, 3-{2-[4-(1-methyl-1H-indol-3-yl)-1-piperidinyl]ethyl}4-(3H)-quinazolinone] had a melting point of 78 °C. The inhibition at 1 µM in series [1] was 43%. In addition, the Ki in series [2] (rat frontal cortical membranes, 3H-paroxetine, read-out: RB 5HT Transporter Ki) stood at 116 nM. The IC50 in series [3] stood at 1480 nM.

Molecule `O=c1c2cc(F)ccc2ncn1CCN1CC=C(c2c[nH]c3ccccc23)CC1` [Example 15, 6-fluoro-3-{2-[4-(1H-indol-3-yl)-3,6-dihydro-1(2H)-pyridinyl]ethyl}-4(3H)-quinazolinone] returned a melting point of 138 °C. In series [1], this molecule yielded an inhibition at 1 µM of 44%. Besides, the affinity in series [2], expressed as Ki, was 19 nM. The half-inhibitory concentration (IC50) in series [3] was found to be 159 nM.
